Data taken from US20250387481A1, “PRE-TREATED T CELLS FOR USE AS A MEDICAMENT” (STICHTING HET NEDERLANDS KANKER INSTITUUT-ANTONI VAN …, priority 2022, published 2025).

Tests used:
[1] = test system: MMTV-PyMT organoids expressing OVA; test: Co-culture of OT I T cells with MMTV-PyMT organoids expressing OVA (cleaved-caspase 3); type: cell-based, mouse; settings: LCKi 10 μmol/L
Experimental: Experiments were approved by the Animal Welfare Committee of the Netherlands Cancer Institute and were performed in accordance with national guidelines. Mice were housed in individually ventilated cage (IVC) systems under specific pathogen-free conditions and received chow and water ad libitum. FVB/NRj females (Janvier), C57BL/6-Tg (TcraTcrb) 1100Mjb/J females (OT I mice, Jackson laboratory), and ROSA26mTmG FVB females (NKI) were used at 8-20 weeks of age at the time of fat pad injection of tumor organoids or spleen isolation.
For T cells isolated from mouse mammary tumors, T cells were directly co-cultured with tumor organoids after FACS isolation. For T cells isolated from the spleen, T cells were treated for 72 h with PBS or with docetaxel (docetaxel 10 nmol/L), in the presence or absence of an LCKi (10 μmol/L, Merck Millipore, Cat. No. 213743-31-8). To evaluate the docetaxel-specificity of our observations, T cells were treated with paclitaxel 10 nmol/L or carboplatin 50 μmol/L for 72 h. Subsequently, T cells were collected and washed 3 times in PBS to remove residual chemotherapy or LCKi.
Organoids were fixed in 4% paraformaldehyde in PBS for 20 min at room temperature, followed by permeabilization in 0.2% TritonX-100 in PBS for 15 min at room temperature. […]

KB1P organoids = test: Co-culture of pre-treated splenic T cells with KB1P organoids (MTT, cleaved-caspase 3); type: cell-based, mouse; settings: LCKi 10 μmol/L
[2] = test system: A375 (melanoma), EGL1 (hepatobiliary cancer) and MDA-MB-231 (breast cancer); KB1P organoids; test: Co-culture of cancer cells or KB1P organoids with T cells pretreated with vinblastine; type: cell-based, human; settings: Jurkat or mouse splenic T cells pretreated with vinblastine; MTT, cleaved caspase 3
Text: Data are shown for three different cell lines derived from human cancer, namely A375 (melanoma), EGL1 (hepatobiliary cancer) and MDA-MB-231 (breast cancer). Organoid apoptosis (determined by cleaved caspase 3 staining) in breast cancer mouse KB1P organoids following co-culture with mouse splenic T cells pretreated with control, vinblastine or colchicine is also shown in FIG. 18. Data are presented as mean with SEM. N=3 biological repeats per repeat.

SMILES | killing of OVA-expressing organoids by OT I T cells [1] | effect of LCK inhibition on docetaxel-increased cytotoxic activity of CD4 or CD8 T cells (KB1P organoids) | T cell mediated cancer cell killing [2]
Nc1ncnc2c1c(-c1ccc(Oc3ccccc3)cc1)cn2C1CCCC1 [LCKi] | reduced killing | did not impair | 
CC[C@]1(O)C[C@@H]2CN(CCc3c([nH]c4ccccc34)[C@@](C(=O)OC)(c3cc4c(cc3OC)N(C)[C@H]3[C@@](O)(C(=O)OC)[C@H](OC(C)=O)[C@]5(CC)C=CCN6CC[C@]43[C@@H]65)C2)C1 [Vinblastine, vinblastine] |  |  | induces T cell mediated cancer cell killing
